Results from US20170224764A1, “THERAPEUTIC TARGETING OF MITOCHONDRIA TO PREVENT OSTEOARTHRITIS” (Cornell University, priority 2016, published 2017).
Entries after “also recorded” stand apart in the source; their conditions may differ.

How the values were obtained:
Format in all cases: cell-based, bovids
cartilage explants [1] = experiment: Cell membrane damage, lactate dehydrogenase (LDH) activity assay on cartilage conditioned media; conditions: 1 μM
Description: (§1) Cartilage was harvested from the knee joints of 4 neonatal bovids (n=30 explants). Cartilage explants were subjected to unconfined compression (24.0±1.4 MPa peak stress; 53.8±5.3 GPa/s peak stress rate) using a validated single-impact subcritical damage model.
(§2) Cartilage explants were treated with 1 μM D-Arg-Dmt-Lys-Phe-NH2 (SS-31) immediately after injury (T0), one hour following injury (T1), or 6 hours after injury (T6), and then cultured for 7 days. Cartilage conditioned media (CCM) was sampled at T0, T1, T6, and every 24 hours after injury (T24-168) for 7 days.
(§3) Explants were stained with calcein AM and ethidium homodimer (for live and dead cells, respectively) to assess chondrocyte viability at T24 and T168 using confocal microscopy. Live, dead and total cell numbers were quantified in z-stacked digital images using a custom ImageJ macro. To quantify cell membrane damage, CCM was analyzed using a colorimetric lactate dehydrogenase (LDH) activity assay, and cumulative cell membrane damage over the 7-day incubation period was determined for each explant.
(§4) Tissue harvest. Full thickness cartilage explants were harvested from the knee joints of healthy bovids (n=8 animals, 1-3 days of age) within 48 hours of sacrifice using an 8 mm biopsy punch. Specimens were rinsed in phosphate-buffered saline (PBS), trimmed to a uniform thickness of 3 mm from the articular surface using a custom jig, and placed in cartilage explant media (phenol free DMEM containing 1% FBS, HEPES 0.025 ml/ml, penicillin 100 U/mL, streptomycin 100 U/mL and 0.1 g/L glucose).
Rapid impact injury model. Explants were subjected to injury using rapid-impact model or served as unimpacted controls (as described in Example 3). […] Impact force was measured at 50 kHz by a load cell (PCBPiezotronics, Depew, N.Y.) attached to the impactor tip. Voltage from the load cell was recorded with a custom LabVIEW program (NI, Austin Tex.). The impact magnitude was adjusted by setting the deflection of the impactor's internal spring and mechanical parameters for each impact were calculated (as described in Example 3). […]

[2] = test system: chondrocytes in cartilage explants; experiment: Apoptosis, activated caspase 3/7 staining of impacted cartilage explants; conditions: Example 6, 1 μM
Description: as §4
(§5) Rapid impact injury model. Explants were subjected to injury using rapid-impact model or served as unimpacted controls (as described in Example 3). Briefly, explants were positioned in a well containing PBS under the plane-ended tip of a spring-loaded impacting device. The impactor was used to deliver a single, rapid cycle of unconfined axial compression (24.0±1.4 MPa peak stress; 53.8±5.3 GPa/s peak stress rate). Impact force was measured at 50 kHz by a load cell (PCBPiezotronics, Depew, N.Y.) attached to the impactor tip. Voltage from the load cell was recorded with a custom LabVIEW program (NI, Austin Tex.). The impact magnitude was adjusted by setting the deflection of the impactor's internal spring and mechanical parameters for each impact were calculated (as described in Example 3).
D-Arg-2′,6′-Dmt-Lys-Phe-NH2 (SS-31) treatment. […]

[3] = test system: chondrocytes in cartilage explants; experiment: Chondrocyte viability, live/dead staining (calcein AM / ethidium homodimer) of impacted cartilage explants, confocal microscopy; conditions: 1 μM
Description: as §1, §2, §3, §4, §5
D-Arg-2′,6′-Dmt-Lys-Phe-NH2 (SS-31) treatment. Following injury, explants were cut perpendicular to the articular surface into 2 hemicylinders using a custom cutting jig to ensure uniform geometry. Cartilage was kept moist at all times and each cut was performed with a fresh (unused) and lubricated cutting instrument. Handling of the experimental tissues was strictly minimized at each step. Explants were placed directly into an individual well of a 24-well untreated tissue culture plate containing a known volume (1.5 ml) of cartilage explant media. Cartilage hemicylinders were randomly assigned to one of 10 treatment groups (n=6/group, FIG. 22). Injured (I) and uninjured control (C) explants in the non-treated groups (ITno, CTno) were placed into wells containing only media. Explants in the time zero treatment groups (IT0, CT0) were placed directly into media containing 1 μM D-Arg-2′,6′-Dmt-Lys-Phe-NH2(SS-31). Explants in the one-hour treatment groups (IT1, CT1) were placed into media only and D-Arg-2′,6′-Dmt-Lys-Phe-NH2(1 μM) was added to the wells 1 hour after impact. Explants in the six-hour treatment groups (IT6, CT6) were placed into media only and D-Arg-2′,6′-Dmt-Lys-Phe-NH2 (1 μM) was added 6 hours after impact. Explants in the twelve-hour treatment groups (IT12, CT12) were placed into media only and D-Arg-2′,6′-Dmt-Lys-Phe-NH2 (1 μM) was added 12 hours after impact. Explants were maintained under standard tissue culture conditions (36° C. and 21% O2) for 7 days. Medium was sampled at 1, 6, and 12 hours, and at 3, 5, and 7 days after impact, and stored at −80° C. until biochemical assays were performed. […]

cartilage explants [4] = experiment: Cartilage matrix degradation, GAG loss into the media by DMMB assay; conditions: 1 μM
Description: as §1
[…] Cartilage conditioned media (CCM) was sampled at T0, T1, T6, and every 24 hours after injury (T24-168) for 7 days.
Cartilage matrix degradation was quantified by measuring GAG loss into the media via DMMB assay.
as §4, §5
D-Arg-2′,6′-Dmt-Lys-Phe-NH2 (SS-31) treatment. […] Cartilage was kept moist at all times and each cut was performed with a fresh (unused) and lubricated cutting instrument. Handling of the experimental tissues was strictly minimized at each step. Explants were placed directly into an individual well of a 24-well untreated tissue culture plate containing a known volume (1.5 ml) of cartilage explant media. Cartilage hemicylinders were randomly assigned to one of 10 treatment groups (n=6/group, FIG. 22). Injured (I) and uninjured control (C) explants in the non-treated groups (ITno, CTno) were placed into wells containing only media. […]
Cartilage GAG loss. To determine if D-Arg-2′,6′-Dmt-Lys-Phe-NH2 could provide structural protection after impact injury, the loss of glycosaminoglycan (GAG) was determined by routine 1,9-dimethyl-methylene blue dye binding (DMMB) assay. […] Total GAG content was read […], and expressed as the total GAG released into cartilage conditioned media over the culture period per μg dry weight of cartilage. […]

## D-Arg-2′,6′-Dmt-Lys-Phe-NH2
Cartilage explants [1]; Example 2, treated versus untreated impacted cartilage
  cumulative cell membrane damage (LDH activity) over the 7 days following injury: prevents cell membrane damage; also recorded: lower in treated than untreated cartilage
Cartilage explants [1]; Example 6, injured, treated versus injured, untreated cartilage, p=0.0005
  cumulative cell membrane damage, LDH activity in cartilage conditioned media over the 7 days following injury: approximately twofold lower; also recorded: lower than injured, untreated explants
Cartilage explants [1]; Example 6, uninjured, treated versus untreated controls, p=0.05
  cumulative LDH in uninjured controls: lower cumulative LDH than untreated controls; also recorded: protective effect against cell membrane damage
[2]; 1 day after cartilage injury, p=0.007
  impact-induced apoptosis (caspase 3/7 positive cells) at 1 day: prevented impact-induced apoptosis; also recorded: equivalent to uninjured controls
[2]; 7 days after cartilage injury, p=0.04
  impact-induced apoptosis (caspase 3/7 positive cells) at 7 days: prevented impact-induced apoptosis; also recorded: equivalent to uninjured controls
[3]; Example 2, treatment at 0, 1 or 6 hours after impact, versus untreated impacted cartilage
  chondrocyte death at 24 hours: significantly reduced
[3]; Example 6, day 1, treatment at 0, 1 or 6 hours
  chondrocyte viability / death in injury+treatment groups compared with un-injured controls: equivalent to uninjured controls
[3]; Example 6, day 1, treatment at 0, 1 or 6 hours after impact
  reduction in impact-induced chondrocyte death, treated versus untreated explants: over 50%
[3]; Example 6, injured groups treated at 0, 1 or 6 hours (IT0, IT1, IT6) versus untreated injured
  cell death at 1 day post-injury: potently reduced cell death; also recorded: effective at preventing chondrocyte death
[3]; Example 6, injury groups treated at 0, 1 or 6 hours, p=0.93
  effect of treatment time on cell death: no effect of treatment time
[3]; Example 6, treatment at 0, 1, 6 or 12 hours after impact
  chondrocyte death (% dead cells) compared with untreated, injured controls: reduced chondrocyte death; also recorded: reduced as compared to untreated, injured controls
[3]; Example 6, treatment immediately, at 1 hour or at 6 hours after impact
  impact-induced cell death on day 7: prevented impact-induced cell death to a similar degree; also recorded: effective at preventing chondrocyte death
Cartilage explants [4]; Example 2, treatment at 0, 1 or 6 hours after impact, 96 hr post impact
  impact-induced GAG loss into the media: decreased GAG loss
Cartilage explants [4]; Example 6, cumulative GAG loss, p=0.002
  decrease of impact-induced GAG loss: ~30%
Cartilage explants [4]; Example 6, treatment at 0, 1 or 6 hours after impact
  cartilage matrix degeneration (GAG loss into the media) compared with uninjured controls: equivalent to uninjured controls
Cartilage explants [4]; Example 6, treatment at 12 hours after impact
  cartilage matrix degeneration (GAG loss into the media) compared with untreated, injured controls: reduced cartilage matrix degeneration
